The results in this text go back to patent US20230346820A1, “METHODS AND COMPOSITIONS FOR THE TREATMENT OF SARS-COV-2” (priority 2020, published 2023).

Where a name gives a salt, the structure may show the parent alone. Read-outs that look alike come from different tables or passages of the source.

One data set relates to HeLa-ACE2 cells. As to the kind of experiment: cells. It counts as cell-based, human.
Data set [1] relates to SARS-CoV-2.
A further data set in a line: in vitro. The following applies: human.
In data set [2] the test system is SARS-CoV-2. As to the kind of experiment: microbe, parasite or virus in culture. The settings on record: Severe acute respiratory syndrome coronavirus 2, HeLa-ACE2, 24 h, read-out: CoV-2 EC50 [μM] (Geomeans, n ≥ 2).
[3] abbreviates: Homo sapiens, HeLa-ACE2, read-out: HeLa-ACE-2 EC50 [μM] (Geomeans, n ≥ 2).
Setting [4] is: CC50 [μM] (Geomeans, n ≥ 2 except where indicated: *n = 1).

`C=CC(=O)Nc1cc2c(Nc3ccc(F)c(Cl)c3)ncnc2cc1C#CC(C)(C)N1CCN(C)CC1` [MP-412]: the results for the EC50 with HeLa-ACE2 cells (setting [3]) and in the data set on SARS-CoV-2 [2] were 1.25 µM and 0.761 µM, respectively. Besides, the “HeLa-ACE2 CC50/CoV-2 EC50” value in the data set with SARS-CoV-2 [1] is reported as 4.18. In “in vitro” (setting [4]), this molecule registered a CC50 of 3.18 µM.
Regarding `CCOC(=O)c1c(CSc2ccccc2)n(C)c2cc(Br)c(O)c(CN(C)C)c12` [Arbidol], the EC50 – broadly, the midpoint of the concentration-response curve – was above 9.34 µM in the data set with HeLa-ACE2 cells (setting [3]) and above 5.97 µM with SARS-CoV-2 [2]. Moreover, the “HeLa-ACE2 CC50/CoV-2 EC50” value in the data set with SARS-CoV-2 [1] amounted to 4.88. Moreover, the CC50 in “in vitro” (setting [4]) is above 29.1 µM.
Taken in the same sequence, the figures for `Cc1cn2nc(-c3cc(=O)n4cc(N5CCNC6(CC6)C5)ccc4n3)cc(C)c2n1` [Risdiplam] were above 7.05 µM, above 7.05 µM, 2.53 and above 17.8 µM.
The matching figures for `CC(CN1CCN(c2cccc3c2CCCN3)CC1)NC(=O)c1ccc(F)cc1` (stereo not shown) [SLV-307]: above 6.7 µM, above 9.59 µM, 4.15 and above 39.8 µM.
For `Cc1ccc(C(=O)Nc2cccc(C(F)(F)F)c2)cc1NC(=O)c1cccc2c(N)nccc12` [RFM-011-761-3], the EC50 is above 9.06 µM with HeLa-ACE2 cells (setting [3]) and 6.31 µM in the data set on SARS-CoV-2 [2]. Moreover, the “HeLa-ACE2 CC50/CoV-2 EC50” value with SARS-CoV-2 [1] is given as above 3.37. This molecule showed a CC50 in the data set “in vitro” (setting [4]) above 21.2 µM.
On to `NC1(C(=O)N[C@@H](CCO)c2ccc(Cl)cc2)CCN(c2nc[nH]c3nccc2-3)CC1` [AZD-5363], for which the EC50 in the data set on HeLa-ACE2 cells (read-out: HeLa-ACE-2 EC50 [μM] (Geomeans, n ≥ 2)) is above 3.39 µM; in the data set on SARS-CoV-2 [1] (read-out: CoV-2 EC50 [μM] (Geomeans, n ≥ 2), Table 1, HeLa-ACE2, 24 h) it was above 4.63 µM.
Turning to `C[C@@H](n1cnc2cc(Cl)ccc2c1=O)[C@](O)(Cn1cncn1)c1ccc(F)cc1F` [albaconazole], the figures for the EC50 in the data set on HeLa-ACE2 cells (setting [3]) and in the data set with SARS-CoV-2 [2] were above 9.59 µM and above 6.04 µM, respectively. The “HeLa-ACE2 CC50/CoV-2 EC50” value with SARS-CoV-2 [1] was 6.6. In “in vitro” (setting [4]), the CC50 was above 39.8 µM.
In the case of `COc1ccc(C2(c3ccccc3)NC(=O)N(CCCN3CCC(c4ccccc4)CC3)C2=O)cc1` (stereo not shown) [ROPITOIN], the EC50 is above 9.59 µM in the data set on HeLa-ACE2 cells (setting [3]) and 4.08 µM in the data set with SARS-CoV-2 [2]. The “HeLa-ACE2 CC50/CoV-2 EC50” value in the data set with SARS-CoV-2 [1] is 5.28. The molecule further had a CC50 in the data set “in vitro” (setting [4]) of 21.5 µM.
Taken in the same sequence, the figures for `CN(C)CCC1CCc2cc(OCc3ccc(-c4ccccc4)cc3)ccc2C1` (stereo not shown) [TAK-070] were above 5.5 µM, 1.41 µM, 7.19 and 10.1 µM.
The matching figures for `C[C@@H]1CCCN1CCc1cc2cc(-c3ccc(C#N)cc3)ccc2o1` [ABT-239]: above 7.49 µM, above 3.33 µM, 11.18 and above 37.2 µM.
The matching figures for `c1cn2cc(-c3ccc4c(c3)nc3n4CCN4CCCCC4C3)ccc2n1` (stereo not shown) [Integrity ID 725781]: above 9.59 µM, above 9.04 µM, 4.41 and above 39.8 µM.
As for `CN(C)CCC(Oc1ccc2c(c1)C(=O)CC(c1ccccc1)O2)c1ccccc1` (stereo not shown) [RFM-007-454-4], the figures for the EC50 in the data set with HeLa-ACE2 cells (setting [3]) and in the data set with SARS-CoV-2 [2] were above 9.59 µM and 3.83 µM, respectively. Besides, the “HeLa-ACE2 CC50/CoV-2 EC50” value in the data set on SARS-CoV-2 [1] is above 6.13. Moreover, the CC50 in “in vitro” (setting [4]) was above 23.5 µM.
The matching figures for `CC[C@@H](C(=O)O)[C@@H]1O[C@@H]([C@@H](C)[C@H](O)[C@H](C)C(=O)[C@H](CC)[C@H]2O[C@]3(C=C[C@@H](O)[C@]4(CC[C@@](C)([C@H]5CC[C@](O)(CC)[C@H](C)O5)O4)O3)[C@H](C)C[C@@H]2C)[C@@H](C)C[C@@H]1C` [Narasin]: 5.99 µM, 1.5 µM, 2.31 and 3.47 µM.
The matching figures for `c1ccc2c(c1)Sc1ccccc1N2CC1CN2CCC1CC2` (stereo not shown) [Mequitazine]: above 9.59 µM, 2.53 µM, 6.83 and 17.3 µM.
As to `Cc1ccc(C(=O)Nc2ccc(CN3CCN(C)CC3)c(C(F)(F)F)c2)cc1C#Cc1cnc2cccnn12` [Ponatinib], the EC50 in the data set with HeLa-ACE2 cells (setting [3]) was 1.25 µM; with SARS-CoV-2 [2], 1.61 µM.
For `CCNCc1cc(Nc2ccnc3cc(Cl)ccc23)ccc1O`, the EC50 in the data set with HeLa-ACE2 cells (setting [3]) is above 9.59 µM; with SARS-CoV-2 [2], 1.22 µM. Further, the “HeLa-ACE2 CC50/CoV-2 EC50” value in the data set with SARS-CoV-2 [1] is given as above 16.69. The CC50 in the data set “in vitro” (setting [4]) is above 20.4 µM.
The matching figures for `COc1ccc2nc3cc(Cl)ccc3c(Nc3cc(CN4CCCC4)c(O)c(CN4CCCC4)c3)c2n1` [pyronaridine]: 3.41 µM, 1.52 µM, above 4.86 and above 7.39 µM.
The matching figures for `CNCc1ccc(OC)c([C@]2(N3CCC[C@H]3c3ncco3)C(=O)N(S(=O)(=O)c3ccc(OC)cc3)c3ccc(Cl)cc32)c1` [RFM-011-200-5]: 4.24 µM, 1.93 µM, above 4.37 and above 8.46 µM.
As for `COc1ccc(C[C@H](N)C(=O)N[C@H]2[C@@H](O)[C@H](n3cnc4c(N(C)C)ncnc43)O[C@@H]2CO)cc1` [puromycin], in the data set with HeLa-ACE2 cells (Homo sapiens, HeLa-ACE2, read-out: EC50 (total cell numbers per well, toxicity in context of infection)), the EC50 worked out at 0.547 ± 0.027 µM. This molecule came in with a CC50 in the data set “in vitro” (HeLa-ACE2 CC50) of 2.45 ± 0.23 µM.
Consider `O=c1c2ccccc2[se]n1-c1ccccc1` [Ebselen], for which the values for the EC50 in the data set on HeLa-ACE2 cells (setting [3]) and in the data set with SARS-CoV-2 [2] were 6.02 µM and above 8.5 µM, respectively. The “HeLa-ACE2 CC50/CoV-2 EC50” value in the data set on SARS-CoV-2 [1] amounted to 3.13. Further, in the data set “in vitro” (setting [4]), the CC50 is above 26.6 µM.
Taken in the same sequence, the figures for `COc1cc2c(Nc3ccc(Cl)c(Cl)c3F)ncnc2cc1OC[C@@H]1C[C@@H]2CN(C)C[C@@H]2C1` [tesevatinib] were above 8.16 µM, 2.44 µM, above 8.46 and above 20.6 µM.
The matching figures for `CCCN1CCN(c2ccc(C(=O)NC3(C(=O)NCC#N)CCCCC3)cc2)CC1` [Balicatib]: above 9.59 µM, 5.11 µM, above 7.79 and above 39.8 µM.
The matching figures for `CCOC(=O)/C=C/[C@H](C[C@@H]1CCNC1=O)NC(=O)[C@@H](CC(=O)[C@@H](NC(=O)c1cc(C)on1)C(C)C)Cc1ccc(F)cc1` [Rupinavir]: above 9.59 µM, above 9.59 µM, 4.15 and above 39.8 µM.
In the case of `O=C(c1ccc(OCCN2CCCCC2)cc1)c1c(-c2ccc(O)cc2)sc2cc(O)ccc12` [raloxifene hydrochloride], the EC50 in the data set on HeLa-ACE2 cells (setting [3]) was above 8.71 µM; with SARS-CoV-2 [2], 4.48 µM. In addition, the “HeLa-ACE2 CC50/CoV-2 EC50” value in the data set with SARS-CoV-2 [1] is given as above 2.97. The molecule also showed a CC50 in the data set “in vitro” (setting [4]) above 13.3 µM.
For `C=CCc1c(OCCCNCc2ccccc2)ccc2c1[nH]c1ccccc12` [YM-75440], the EC50 in the data set on HeLa-ACE2 cells (setting [3]) was above 6.58 µM; in the data set with SARS-CoV-2 [2], 1.64 µM. Also, the “HeLa-ACE2 CC50/CoV-2 EC50” value with SARS-CoV-2 [1] was found to be 4.89. Besides, in “in vitro” (setting [4]), the CC50 worked out at 8.01 µM.
The matching figures for `CCOc1cc(C(C)(C)C)ccc1C1=N[C@@](C)(c2ccc(Cl)cc2)[C@@](C)(c2ccc(Cl)cc2)N1C(=O)N1CCN(CCCS(C)(=O)=O)CC1` [R-7112]: above 9.6 µM, 3.23 µM, above 4.61 and above 14.9 µM.
Taken in the same sequence, the figures for `C=C(C)[C@@H]1CC[C@]2(C(=O)OCC(N)(CO)CO)CC[C@]3(C)[C@H](CC[C@@H]4[C@@]5(C)CC[C@H](OC(C)=O)C(C)(C)[C@@H]5CC[C@]43C)[C@@H]12` [NVX-207] were 5.88 µM, 1.87 µM, 4.37 and 8.19 µM.
Taken in the same sequence, the figures for `CC(C)(/C=N/OCC(=O)O)Cc1c(SC(C)(C)C)c2cc(OCc3ccc4ccccc4n3)ccc2n1Cc1ccc(Cl)cc1` [A 81834] were above 9.59 µM, above 7.47 µM, above 3.02 and above 22.6 µM.
As to `OCCN1CCN(CC/C=C2\c3ccccc3Sc3ccc(Cl)cc32)CC1` [ZUCLPEN THIXL], the EC50 was above 9.59 µM in the data set with HeLa-ACE2 cells (setting [3]) and 2.08 µM in the data set with SARS-CoV-2 [2]. The “HeLa-ACE2 CC50/CoV-2 EC50” value with SARS-CoV-2 [1] was above 8.08. In the data set “in vitro” (setting [4]), the CC50 was above 16.8 µM.
The matching figures for `CC(C)(C)NC(=O)N[C@H](C(=O)N1C[C@H]2[C@@H]([C@H]1C(=O)NC(CC1CCC1)C(=O)C(N)=O)C2(C)C)C(C)(C)C` (stereo partly shown) [Boceprevir]: above 7.08 µM, above 9.34 µM, 4.27 and above 39.8 µM.
Taken in the same sequence, the figures for `COC(=O)C1=C(C)NC(C)=C(C(=O)OCCCCNC[C@@H](O)COc2ccccc2)C1c1cccc([N+](=O)[O-])c1` (stereo partly shown) [YM 430] were above 7.8 µM, 2.88 µM, 7.01 and above 20.2 µM.
With `CN1CCN(CCCN2c3ccccc3Sc3ccc(S(=O)(=O)N(C)C)cc32)CC1` [Thioproperazine], the EC50 with HeLa-ACE2 cells (setting [3]) was above 9.59 µM; with SARS-CoV-2 [2], 3.03 µM. Besides, the “HeLa-ACE2 CC50/CoV-2 EC50” value with SARS-CoV-2 [1] stood at 7.29. In “in vitro” (setting [4]), this molecule returned a CC50 of 22.1 µM.
Regarding `CC1=C(c2ccc(O)cc2)[C@H](c2ccc(OCCN3CCCCC3)cc2)Oc2cc(O)ccc21` [ACOLBIFENE], the EC50 with HeLa-ACE2 cells (setting [3]) is above 9.59 µM; in the data set on SARS-CoV-2 [2], 4.79 µM. For the same molecule, in the data set on SARS-CoV-2 [1], the “HeLa-ACE2 CC50/CoV-2 EC50” value is 2.8. Further, in the data set “in vitro” (setting [4]), the CC50 was 13.4 µM.
The matching figures for `COc1cc(CC2c3cc(OC)c(OC)cc3CCN2C)c(Oc2cc3c(cc2OC)-c2c(O)c(OC)cc4c2C(C3)N(C)CC4)cc1OC` (stereo not shown) [Thalicarpine Analog]: above 8.78 µM, above 0.8 µM, 26.77 and above 21.5 µM.
For `COc1cc(C[C@H]2c3cc(OC)c(OC)cc3CCN2C)c(Oc2cc3c(cc2OC)-c2c(OC)c(OC)cc4c2[C@H](C3)N(C)CC4)cc1OC` [Thalicarpine], the EC50 in the data set with HeLa-ACE2 cells (setting [3]) was above 9.6 µM. Besides, in the data set with SARS-CoV-2 [1], the “HeLa-ACE2 CC50/CoV-2 EC50” value was above 45.67. For the same molecule, in “in vitro” (setting [4]), the CC50 was above 26.6 µM.
